# Molecular target: T1, rat histamine H3 receptors (Rattus norvegicus, UniProt Q9QYN8)
# T1 construct: Frozen rat frontal brain or frozen human post-mortem frontal brain is homogenized; from tissue; host or cells: rat frontal brain membranes
# Test: Rat Histamine H3 Receptor Binding
# Conditions: frozen rat frontal brain membranes; radioligand 1 nM 3H-N-methyl-histamine; 1 hour incubation; read-out: rH3 Ki
# T1 sequence (Q9QYN8 whole entry): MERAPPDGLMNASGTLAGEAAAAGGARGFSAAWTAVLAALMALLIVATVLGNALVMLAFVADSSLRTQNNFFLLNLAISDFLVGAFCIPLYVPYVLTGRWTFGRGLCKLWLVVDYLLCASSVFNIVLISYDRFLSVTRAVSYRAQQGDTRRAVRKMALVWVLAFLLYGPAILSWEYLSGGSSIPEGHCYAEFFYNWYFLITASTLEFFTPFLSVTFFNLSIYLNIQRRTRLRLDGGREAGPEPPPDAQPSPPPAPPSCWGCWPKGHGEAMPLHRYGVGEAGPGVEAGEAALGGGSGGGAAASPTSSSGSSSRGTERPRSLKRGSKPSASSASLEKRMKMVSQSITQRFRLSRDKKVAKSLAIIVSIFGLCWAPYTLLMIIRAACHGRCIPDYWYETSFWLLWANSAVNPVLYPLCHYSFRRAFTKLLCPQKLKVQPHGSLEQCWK
row,SMILES,Ki
1,"Cc1cnc(OC[C@H]2C[C@@H](c3ccc(CN4CCCC4)cc3)C2)nc1C1CCCNC1 (relative stereo) [Example 59, cis-5-Methyl-4-piperidin-3-yl-2-[3-(4-pyrrolidin-1-ylmethyl-phenyl)-cyclobutylmethoxy]-pyrimidine]",26.2 nM
2,"FC(F)(F)c1cc(-c2ccccc2)nc(OC[C@H]2C[C@@H](c3ccc(CN4CCCC4)cc3)C2)n1 [Example 76, cis-4-Phenyl-2-{[3-(4-pyrrolidin-1-ylmethyl-phenyl)-cyclobutylmethyl]oxy}-6-trifluoromethyl-pyrimidine]",1.89 nM
3,"CN(C[C@H]1C[C@H](c2ccc(CN3CCCC3)cc2)C1)C1CCCCC1 [Example 115, trans-Cyclohexyl-methyl-[3-(4-pyrrolidin-1-ylmethyl-phenyl)-cyclobutylmethyl]-amine]",1.44 nM
4,"CN(Cc1ccccc1)C[C@H]1C[C@H](c2ccc(CN3CCCC3)cc2)C1 [Example 116, trans-Benzyl-methyl-[3-(4-pyrrolidin-1-ylmethyl-phenyl)-cyclobutylmethyl]-amine]",2.82 nM
5,"c1cc([C@H]2C[C@H](CN3CCCC3)C2)ccc1CN1CCCC1 [Example 107, trans-1-[3-(4-Pyrrolidin-1-ylmethyl-phenyl)-cyclobutylmethyl]-pyrrolidine]",2.09 nM
6,"c1cc([C@H]2C[C@@H](CN3CCNCC3)C2)ccc1CN1CCCC1 [Example 101, cis-1-[3-(4-Pyrrolidin-1-ylmethyl-phenyl)-cyclobutylmethyl]-piperazine]",4.81 nM
7,"c1cc([C@H]2C[C@H](CN3CCCCC3)C2)ccc1CN1CCCC1 [Example 108, trans-1-[3-(4-Pyrrolidin-1-ylmethyl-phenyl)-cyclobutylmethyl]-piperidine]",0.58 nM
8,"Cc1ccc(S(=O)(=O)OC[C@H]2C[C@H](c3ccc(CN4CCCC4)cc3)C2)cc1 [Example 48, trans-Toluene-4-sulfonic acid 3-(4-pyrrolidin-1-ylmethyl-phenyl)-cyclobutylmethyl ester]",98 nM
9,"c1ccc(OCC2CC(c3ccc(CN4CCCC4)cc3)C2)nc1 (centres unmarked) [Example 42, 2-[3-(4-Pyrrolidin-1-ylmethyl-phenyl)-cyclobutylmethoxy]-pyridine]",131 nM
10,"COC[C@@H]1CCCN1C[C@H]1C[C@H](c2ccc(CN3CCCC3)cc2)C1 [Example 128, trans-(S)-2-Methoxymethyl-1-[3-(4-pyrrolidin-1-ylmethyl-phenyl)-cyclobutylmethyl]-pyrrolidine]",8.91 nM
11,"N#Cc1cccc(COCC2CC(c3ccc(CN4CCCC4)cc3)C2)c1 (centres unmarked) [Example 5, 3-[3-(4-Pyrrolidin-1-ylmethyl-phenyl)-cyclobutylmethoxymethyl]-benzonitrile]",89.2 nM
12,"CC1CCCN(C[C@H]2C[C@H](c3ccc(CN4CCCC4)cc3)C2)C1 (relative stereo) [Example 118, trans-3-Methyl-1-[3-(4-pyrrolidin-1-ylmethyl-phenyl)-cyclobutylmethyl]-piperidine]",0.65 nM
13,"c1ccc(C2CCCN2C[C@H]2C[C@@H](c3ccc(CN4CCCC4)cc3)C2)nc1 (relative stereo) [Example 105, cis-2-{1-[3-(4-Pyrrolidin-1-ylmethyl-phenyl)-cyclobutylmethyl]-pyrrolidin-2-yl}-pyridine]",5.38 nM
14,"c1cnc(OCC2CC(c3ccc(CN4CCCC4)cc3)C2)cn1 (centres unmarked) [Example 40, 2-[3-(4-Pyrrolidin-1-ylmethyl-phenyl)-cyclobutylmethoxy]-pyrazine]",74.3 nM
15,"Fc1cnc(OCC2CC(c3ccc(CN4CCCC4)cc3)C2)nc1C1CCNCC1 (centres unmarked) [Example 74, 5-Fluoro-4-piperidin-4-yl-2-[3-(4-pyrrolidin-1-ylmethyl-phenyl)-cyclobutylmethoxy]-pyrimidine]",12.5 nM
16,"Cc1cc(C(=O)Nc2ccccc2)nc(OC[C@H]2C[C@@H](c3ccc(CN4CCCC4)cc3)C2)n1 [Example 83, cis-6-Methyl-2[3-(4-pyrrolidin-1-ylmethyl-phenyl)-cyclobutylmethoxy]-pyrimidine-4-carboxylic acid phenylamide]",68.8 nM
17,CCCN(CC1CC1)C[C@H]1C[C@H](c2ccc(CN3CCCC3)cc2)C1 [Example 124],0.49 nM
18,"CC1CCN(C[C@H]2C[C@H](c3ccc(CN4CCCC4)cc3)C2)CC1 [Example 119, trans-4-Methyl-1-[3-(4-pyrrolidin-1-ylmethyl-phenyl)-cyclobutylmethyl]-piperidine]",1.34 nM
19,"C[C@@H]1CN(C[C@H]2C[C@@H](c3ccc(CN4CCCC4)cc3)C2)C[C@H](C)O1 [Example 106, cis-(2R,6S)-2,6-Dimethyl-4-[3-(4-pyrrolidin-1-ylmethyl-phenyl)-cyclobutylmethyl]-morpholine]",8.35 nM
20,"Cc1cc(C2CCNCC2)nc(OC[C@H]2C[C@@H](c3ccc(CN4CCCC4)cc3)C2)n1 [Example 77, cis-4-Methyl-6-piperidin-4-yl-2-[3-(4-pyrrolidin-1-ylmethyl-phenyl)-cyclobutylmethoxy]-pyrimidine]",42.5 nM

# Further compounds by falling Ki, results first:
row,Ki,SMILES
1,110 nM,"Cc1nnc(OC[C@H]2C[C@@H](c3ccc(CN4CCCC4)cc3)C2)c2ccccc12 [Example 78, cis-1-Methyl-4-[3-(4-pyrrolidin-1-ylmethyl-phenyl)-cyclobutylmethoxy]-phthalazine]"
2,104 nM,"COc1cc(OCC2CC(c3ccc(CN4CCCC4)cc3)C2)nc(OC)n1 (centres unmarked) [Example 46, 2,4-Dimethoxy-6-[3-(4-pyrrolidin-1-ylmethyl-phenyl)-cyclobutylmethoxy]-pyrimidine]"
3,101 nM,"O=C1CN(C[C@H]2C[C@H](c3ccc(CN4CCCC4)cc3)C2)CCN1 [Example 127, trans-4-[3-(4-Pyrrolidin-1-ylmethyl-phenyl)-cyclobutylmethyl]-piperazin-2-one]"
4,101 nM,"CCc1cnc(OC[C@H]2C[C@H](c3ccc(CN4CCCC4)cc3)C2)nc1 [Example 57, trans-5-Ethyl-2-[3-(4-pyrrolidin-1-ylmethyl-phenyl)-cyclobutylmethoxy]-pyrimidine]"
5,98.8 nM,"c1ccc(COCC2CC(c3ccc(CN4CCCC4)cc3)C2)cc1 (centres unmarked) [Example 2, 1-[4-(3-Benzyloxymethyl-cyclobutyl)-benzyl]-pyrrolidine]"
6,79.4 nM,"Fc1cc(F)cc(COCC2CC(c3ccc(CN4CCCC4)cc3)C2)c1 (centres unmarked) [Example 14, 1-(4-{-3-[(3,5-Difluoro-phenyl)methoxymethyl]-cyclobutyl}-benzyl)-pyrrolidine]"
7,74.2 nM,"Cc1ccc(COCC2CC(c3ccc(CN4CCCC4)cc3)C2)cc1 (centres unmarked) [Example 27, 1-{4-[3-(4-Methyl-benzyloxymethyl)-cyclobutyl]-benzyl}-pyrrolidine]"
8,44.4 nM,"COc1ccc(OCC2CC(c3ccc(CN4CCCC4)cc3)C2)nn1 (centres unmarked) [Example 44, 3-Methoxy-6-[3-(4-pyrrolidin-1-ylmethyl-phenyl)-cyclobutylmethoxy]-pyridazine]"
9,33.6 nM,"Cc1ccc(C)n1-c1ccc(OC[C@H]2C[C@@H](c3ccc(CN4CCCC4)cc3)C2)nn1 [Example 90, cis-3-(2,5-Dimethyl-pyrrol-1-yl)-6-{[3-(4-pyrrolidin-1-ylmethyl-phenyl)-cyclobutylmethyl]oxy}-pyridazine]"
10,32 nM,"Cc1cnc(C)c(OCC2CC(c3ccc(CN4CCCC4)cc3)C2)n1 (centres unmarked) [Example 41, 2,5-Dimethyl-3-[3-(4-pyrrolidin-1-ylmethyl-phenyl)-cyclobutylmethoxy]-pyrazine]"
11,8.34 nM,"OC1(c2ccc(CN3CCCC3)cc2)CC(COCc2ccccc2)C1 (centres unmarked) [Example 1, 3-Benzyloxymethyl-1-(4-pyrrolidin-1-ylmethyl-phenyl)-cyclobutanol]"
12,7.28 nM,"c1cc(C2CCNC2)nc(OC[C@H]2C[C@@H](c3ccc(CN4CCCC4)cc3)C2)n1 (relative stereo) [Example 65, cis-4-Pyrrolidin-3-yl-2-[3-(4-pyrrolidin-1-ylmethyl-phenyl)-cyclobutylmethoxy]-pyrimidine]"
13,6.84 nM,"C[C@@H]1CC[C@@H](C)N1C[C@H]1C[C@H](c2ccc(CN3CCCC3)cc2)C1 [Example 123, trans-(2R,5R)-2,5-Dimethyl-1-[3-(4-pyrrolidin-1-ylmethyl-phenyl)-cyclobutylmethyl]-pyrrolidine]"
14,5.65 nM,"Cc1ccc(S(=O)(=O)OCC2CC(c3ccc(CN4CCCC4)cc3)C2)cc1 (centres unmarked) [Example 4, Toluene-4-sulfonic acid 3-(4-pyrrolidin-1-ylmethyl-phenyl)-cyclobutylmethyl ester]"
15,4.75 nM,"Cc1cc(C2CCNC2)nc(OC[C@H]2C[C@@H](c3ccc(CN4CCCC4)cc3)C2)n1 (relative stereo) [Example 66, cis-4-Methyl-6-pyrrolidin-3-yl-2-[3-(4-pyrrolidin-1-ylmethyl-phenyl)-cyclobutylmethoxy]-pyrimidine]"
16,3.79 nM,"Cc1cnc(OC[C@H]2C[C@@H](c3ccc(CN4CCCC4)cc3)C2)nc1C1CCNC1 (relative stereo) [Example 88, cis-5-Methyl-4-pyrrolidin-3-yl-2-[3-(4-pyrrolidin-1-ylmethyl-phenyl)-cyclobutylmethoxy]-pyrimidine]"
17,3.35 nM,"CC1CCCN1C[C@H]1C[C@H](c2ccc(CN3CCCC3)cc2)C1 (relative stereo) [Example 120, trans-2-Methyl-1-[3-(4-pyrrolidin-1-ylmethyl-phenyl)-cyclobutylmethyl]-pyrrolidine]"
18,2.71 nM,"CN(Cc1cccnc1)C[C@H]1C[C@H](c2ccc(CN3CCCC3)cc2)C1 [Example 122, trans-Methyl-pyridin-3-ylmethyl-[3-(4-pyrrolidin-1-ylmethyl-phenyl)-cyclobutylmethyl]-amine]"
19,1.77 nM,"c1ccc2c(c1)CN(C[C@H]1C[C@H](c3ccc(CN4CCCC4)cc3)C1)C2 [Example 125, trans-2-[3-(4-Pyrrolidin-1-ylmethyl-phenyl)-cyclobutylmethyl]-2,3-dihydro-1H-isoindole]"
20,0.73 nM,"CC1CCCCN1C[C@H]1C[C@H](c2ccc(CN3CCCC3)cc2)C1 (relative stereo) [Example 117, trans-2-Methyl-1-[3-(4-pyrrolidin-1-ylmethyl-phenyl)-cyclobutylmethyl]-piperidine]"
21,0.48 nM,"CC1CC(C)CN(C[C@H]2C[C@H](c3ccc(CN4CCCC4)cc3)C2)C1 (stereo partly drawn) [Example 114, trans-3,5-Dimethyl-1-[3-(4-pyrrolidin-1-ylmethyl-phenyl)-cyclobutylmethyl]-piperidine]"
